Assay: xn = mol fraction of the nth substance listed
Details: 101 kPa

CCC(O)CO (configuration not stated) + CCCC[N+](C)(C)C.O=S(=O)([N-]S(=O)(=O)C(F)(F)F)C(F)(F)F
x1 = 1
Details	viscosity [mPa·s]
323.15 K	12.85
333.15 K	8.33
338.15 K	6.83
343.15 K	5.65
348.15 K	4.75
353.15 K	4.03

C[N+](C)(C)CCO.O=S(=O)([N-]S(=O)(=O)C(F)(F)F)C(F)(F)F + OCCCCCO
viscosity [mPa·s]
Details	x2 = 0	x2 = 0.1351	x2 = 0.2149	x2 = 0.4145	x2 = 0.5087	x2 = 0.6847	x2 = 0.7858	x2 = 0.9071
313.15 K	56.4	49.5	45.2	38.4	37	36.8	37.8	40.8
318.15 K	46.8	40.8	–	31.4	30.2	29.7	30.3	32.9
323.15 K	–	34.2	–	26.1	24.9	24.3	24.7	26.8
328.15 K	33.4	28.9	–	22	20.9	20.2	20.2	22
333.15 K	28.6	24.7	–	18.7	17.7	17	16.86	18.3
338.15 K	24.6	21.3	19.5	–	15.17	14.44	14.12	15.4
343.15 K	21.6	18.6	17	13.98	13.08	–	11.92	12.99

CC(O)C(C)O (configuration not stated) + CCCC[N+](C)(C)C.O=S(=O)([N-]S(=O)(=O)C(F)(F)F)C(F)(F)F
viscosity [mPa·s]
Details	x1 = 0.0879	x1 = 0.3137	x1 = 0.4515	x1 = 0.557	x1 = 0.6216	x1 = 0.8142	x1 = 1
323.15 K	28.8	20.9	18.2	–	–	15.29	17
328.15 K	24.4	17.7	15.32	–	13.26	12.34	13.13
333.15 K	20.9	–	–	–	11.09	10.19	10.34
338.15 K	18.1	13.22	11.32	10	9.39	8.53	8.27
343.15 K	15.83	11.16	9.89	8.68	8.03	7.33	–

CCCC[N+](C)(C)C.O=S(=O)([N-]S(=O)(=O)C(F)(F)F)C(F)(F)F + CC(O)CO
viscosity [mPa·s]
Details	x2 = 0	x2 = 0.132	x2 = 0.1909	x2 = 0.3054	x2 = 0.5274	x2 = 0.7262	x2 = 0.8149	x2 = 0.8843
323.15 K	–	25.2	22.8	19.6	15.85	14.66	12.95	–
328.15 K	30	21.4	–	16.72	13.36	12.33	10.63	9.67
333.15 K	25.7	18.4	16.53	–	11.41	10.46	8.85	8.04
338.15 K	–	15.98	14.01	–	–	8.91	–	6.68
343.15 K	–	13.99	12.36	10.89	8.6	7.59	6.35	5.62
348.15 K	–	12.65	–	9.89	–	6.68	–	4.96
353.15 K	15.63	11.91	10.8	9.3	7.51	6.1	–	4.62

C[N+](C)(C)CCO.O=S(=O)([N-]S(=O)(=O)C(F)(F)F)C(F)(F)F + OCCCO
viscosity [mPa·s]
Details	313.15 K	318.15 K	323.15 K	328.15 K	333.15 K	338.15 K	343.15 K	348.15 K	353.15 K
x2 = 0	56.4	–	39.3	–	28.6	24.6	21.6	–	16.9
x2 = 0.1272	–	39.1	32.8	27.9	–	20.8	18.1	16	14.19
x2 = 0.2297	39.8	33.1	27.9	23.8	–	–	–	13.8	12.29
x2 = 0.4106	–	25.1	21.2	18.1	15.6	13.62	11.96	10.58	9.49
x2 = 0.5712	–	20.8	17.5	14.95	12.87	11.18	9.79	–	7.65
x2 = 0.6946	22.2	18.4	15.47	13.14	–	–	8.51	7.46	6.58
x2 = 0.8367	20.4	16.91	–	–	10.27	8.86	7.74	6.78	–
x2 = 0.9474	19.5	16.22	13.62	11.54	9.86	–	7.36	6.39	5.57

CC(O)CO (configuration not stated) + C[N+](C)(C)CCO.O=S(=O)([N-]S(=O)(=O)C(F)(F)F)C(F)(F)F
x1 = 1
Details	viscosity [mPa·s]
313.15 K	19.1
318.15 K	15.17
323.15 K	12.2
328.15 K	9.85
333.15 K	8
338.15 K	6.4
343.15 K	5.27
348.15 K	4.5
353.15 K	3.78

CCCC[N+](C)(C)C.O=S(=O)([N-]S(=O)(=O)C(F)(F)F)C(F)(F)F + CCC(O)CO
viscosity [mPa·s]
Details	323.15 K	328.15 K	333.15 K	338.15 K	343.15 K	348.15 K	353.15 K
x2 = 0	35.6	–	25.7	22.1	19.2	16.81	15.63
x2 = 0.2291	22.5	19.1	16.35	–	–	10.93	10.09
x2 = 0.3543	19.1	16.13	13.78	–	10.4	9.13	8.39
x2 = 0.5116	16.9	14.18	12.01	10.29	8.9	7.77	–
x2 = 0.6289	–	13.27	11.03	9.35	8.1	–	6.33
x2 = 0.8622	13.55	10.93	8.96	7.44	6.26	5.32	–
x2 = 0.9031	13.23	10.7	8.68	7.12	5.98	5.19	4.58

CCCC[N+](C)(C)C.O=S(=O)([N-]S(=O)(=O)C(F)(F)F)C(F)(F)F + CC(O)C(C)O
x2 = 0
Details	viscosity [mPa·s]
323.15 K	35.6
333.15 K	25.7
338.15 K	22.1
343.15 K	19.2

OCCCCCO + C[N+](C)(C)CCO.O=S(=O)([N-]S(=O)(=O)C(F)(F)F)C(F)(F)F
x1 = 1
Details	viscosity [mPa·s]
313.15 K	45.6
318.15 K	36.9
323.15 K	29.8
328.15 K	24.5
338.15 K	16.84
343.15 K	14.44

CC(O)CO (configuration not stated) + CCCC[N+](C)(C)C.O=S(=O)([N-]S(=O)(=O)C(F)(F)F)C(F)(F)F
x1 = 1
Details	viscosity [mPa·s]
323.15 K	12.2
328.15 K	9.85
333.15 K	8
338.15 K	6.41
343.15 K	5.27
348.15 K	4.54

OCCCO + C[N+](C)(C)CCO.O=S(=O)([N-]S(=O)(=O)C(F)(F)F)C(F)(F)F
x1 = 1
Details	viscosity [mPa·s]
313.15 K	20.3
318.15 K	16.88
323.15 K	14.16
328.15 K	12.01
333.15 K	10.24
343.15 K	7.47
348.15 K	6.62
353.15 K	5.8

C[N+](C)(C)CCO.O=S(=O)([N-]S(=O)(=O)C(F)(F)F)C(F)(F)F + CC(O)CO
viscosity [mPa·s]
Details	313.15 K	318.15 K	323.15 K	328.15 K	333.15 K	338.15 K	343.15 K	348.15 K	353.15 K
x2 = 0	–	46.8	39.3	33.4	–	–	21.6	–	16.9
x2 = 0.2189	37.3	31.1	26.2	22.3	19.2	16.54	–	12.98	11.55
x2 = 0.3834	31.1	26.2	21.7	18.6	15.87	13.73	–	10.65	9.42
x2 = 0.4786	–	–	19.8	16.76	14.37	12.63	10.88	9.6	8.48
x2 = 0.5867	26.7	21.9	18.2	–	13.15	11.34	9.88	8.68	7.67
x2 = 0.7668	22	17.9	14.79	12.4	10.52	9.01	7.78	6.77	5.91
x2 = 0.8744	19.7	15.95	13.08	10.84	9.12	7.72	–	5.69	4.91
